The NIST ThermoML archive (doi:10.1021/je400551d)
“And” between values parts separate entries of the source, which are not always exact repeats. Identical values can stand only once.

Settings: Liquid, Manometric method

OCCO [1,2-ethanediol]
Settings | vapor or sublimation pressure [kPa]
336.45 K | 0.2527
345 K | 0.4838
355.15 K | 0.9002
369.25 K | 1.69
374.45 K | 2.13
378.95 K | 2.66
384.45 K | 3.57
388.1 K | 4.4
391.45 K | 5.33
394.56 K | 6.01
397.25 K | 7.14
404.05 K | 9.2
408.25 K | 11.34

COC(N)=O [carbamic acid, methyl ester]
Settings | vapor or sublimation pressure [kPa]
341.45 K | 1.31
350.9 K | 1.91
356.06 K | 2.5
360.75 K | 3.55
364.43 K | 4.19
367 K | 4.48
371.7 K | 5.42
373.85 K | 6.23
377.23 K | 7.14
384.9 K | 9.83
387.17 K | 10.96
390.5 K | 12.39
393.75 K | 13.99

CCCCCCCCCC [decane]
Settings | vapor or sublimation pressure [kPa]
299.25 K | 0.1732
306.95 K | 0.3091
309.15 K | 0.4116
316.26 K | 0.6545
326.1 K | 1.04
340.05 K | 1.95
347.9 K | 2.97
353.32 K | 3.8
358.67 K | 4.82
362.85 K | 5.92
365.13 K | 6.96
370.4 K | 8.23
377.13 K | 10.48
379.93 K | 12
382.83 K | 13.25

COC(=O)Nc1ccccc1 [methyl N-phenylcarbamate]
Settings | vapor or sublimation pressure
372.5 K | 0.2093 kPa
374.46 K | 0.2248 kPa
376.9 K | 0.254 kPa
379.05 K | 0.308 kPa
380.65 K | 0.3343 kPa
383.31 K | 0.3891 kPa
385.85 K | 0.4487 kPa
387.85 K | 0.4996 kPa
390.35 K | 0.5609 kPa
391.76 K | 0.5914 kPa
394.05 K | 0.651 kPa
395.8 K | 0.719 kPa
397.05 K | 0.7885 kPa and 0.7897 kPa
399.63 K | 0.9364 kPa
399.83 K | 0.9418 kPa
402.15 K | 1.06 kPa
409.85 K | 1.29 kPa
412.9 K | 1.54 kPa
415.9 K | 1.97 kPa
418.45 K | 2.13 kPa

O [water]
Settings | vapor or sublimation pressure [kPa]
280.2 K | 1.29
282.23 K | 1.34
287.9 K | 1.82
292.36 K | 2.13
296.13 K | 2.78
300.7 K | 3.47
304.8 K | 4.54
306.67 K | 4.82
309.65 K | 5.9
312.07 K | 6.75
314.95 K | 7.78
316.65 K | 8.45
317.9 K | 9.45
320.04 K | 10.62
322.75 K | 11.78
